Source: patent US6342201B1, “Complex compounds for diagnosis of vascular diseases” (Institut for Diagnostikforschung GmbH an der Freien …, priority 1994, dated 2002)
“Also recorded” adds a separate entry of the source.

Experiments:
[1] = tested on: denuded (arteriosclerotic) right a. carotis; assay: Scintigram and autoradiogram of a New Zealand rabbit with right a. carotis denuded by Fogarty-catheter; type: in vivo; conditions: right a. carotis denuded four weeks earlier, 0.5 h after i.v. application of 74 MBq
Excerpt: (§1) The order of the dissected tissues for each B1 and B2 from left to right: thoracic aorta, right denuded a. carotis and left untreated a. carotis.

[2] = tested on: plaque as well as non-plaque regions of the aorta; assay: Quantitative autoradiography and Sudan-III-dyeing of the removed aorta of WHHL-rabbits after i.v. application; set-up: species or system WHHL-rabbit; conditions: in vivo
Method: 74 MBq (2 mCi) of the respective compound according to the invention was applied via an ear vein in a WHHL-rabbit. 5 h p.i. the rabbit was killed and both a quantitative autoradiography and a Sudan-III-dyeing of the removed aorta were performed. The so-determined accumulation of the respective compounds according to the invention in the different tissues is listed in Table 1.
2 mCi (1 ml) of the analog to b) labelled […]was applied to a narcotized WHHL-rabbit (Rompun/Ketavet 1:2) via an ear vein. WHHL-rabbits reveal due a missing or defect LDL receptor high LDL levels in blood and therefore show spontaneous arteriosclerotic vascular changes. During the experimental time span of 5 h after application, static photographs with various exposure times and positions were taken with a gamma camera (Elcint SP4 HR). 5 h after application the rabbit was killed and both an autoradiography and a Sudan III dyeing of the aorta were performed. The arteriosclerotic plagues in the region of the aortic arch of the WHHL-rabbits could be depicted with 10 min p.i. in vivo. […] The enrichment factor between the normal and arteriosclerotic wall regions was between 6 and 9, depending on the plaque formation (Sudan III dyeing).

[3] = tested on: arteriosclerotic plaques (aortic arch, a. carotis, abdominal aorta); assay: In vivo gamma camera scintigraphy of WHHL-rabbits; set-up: species or system WHHL-rabbit
Method: as §1
2 mCi (1 ml) of the analog to b) labelled […]was applied to a narcotized WHHL-rabbit (Rompun/Ketavet 1:2) via an ear vein. WHHL-rabbits reveal due a missing or defect LDL receptor high LDL levels in blood and therefore show spontaneous arteriosclerotic vascular changes. During the experimental time span of 5 h after application, static photographs with various exposure times and positions were taken with a gamma camera (Elcint SP4 HR). 5 h after application the rabbit was killed and both an autoradiography and a Sudan III dyeing of the aorta were performed.

Substance	Enrichment factor Plaque / Non-plaque [2]	other results
^99mTc-Complex of Asp-Gly-Gly-Cys-Gly-Cys-D-Trp-Leu-Asp-Ile-Ile-Trp [Example 2 c]	–	in vivo detection of the arteriosclerotic right a. carotis in anterior scintigram [1]: could be detected in vivo
Tc-99m-Complex of N-(4-hydroxycarboxy-1-oxo-3-thia-but-1-yl)-Cys-(D-Trp)-Leu-Asp-Ile-Ile-Trp [Example 5 c]	9	–
Tc-99m-Complex of Asp-Gly-Gly-Cys-Gly-Cys-Phe-(D-Trp)-Leu-Asp-Ile-Ile-Trp [Example 3 c]	–	enrichment activity in vivo in left lateral scintigram ([3]; WHHL-rabbit versus New Zealand control rabbit, 0.5 h after i.v. application of 74 MBq, aortic arch, left a. carotis, abdominal aorta): observable enrichment activity in vivo; also recorded: enrichment activity is visible in vivo
Tc-99m-Complex of N-(4-hydroxycarboxy-1-oxo-3-thia-but-1-yl)-Cys-Phe-(D-Trp)-Leu-Asp-Ile-Ile-Trp [Example 4 c]	14	–
Tc-99m-Complex of N-(4-hydroxycarboxy-1-oxo-3-thia-but-1-yl)-Cys-His-Leu-Asp-Ile-Ile-Trp [Example 6 c]	5	–
^99mTc-Complex of Asp-Gly-Gly-Cys-Gly-Cys-His-Leu-Asp-Ile-Ile-Trp [Example 1 c]	–	time p.i. at which arteriosclerotic plaques in the region of the aortic arch could be depicted in vivo ([3]; WHHL-rabbit, 2 mCi via ear vein, gamma camera): 10 min
